# Assay results taken from patent US20190367449A1, “PHENYLCREATINE, ITS USE AND METHOD FOR ITS PRODUCTION” (priority 2017, published 2019).
# What was measured:
# white mongrel mice = assay: Endurance of mice in the treadmill test (running to complete exhaustion); format: in vivo; settings: for Running time of mice (M ± m): treadmill 29-31 m/min, 1 hour after administration
# Experimental: In order to find out whether phenylcreatine is a functional analogue of creatine, and also how much its effect is related to the strength of creatine, the functional state of the mice was assessed, namely, the body weight was measured, activity and endurance in the test on white mongrel mice were assessed-males weighing 18-22 g. Two experimental groups of mice and one control group (10 mice in each group) were selected. Initially, the animals were of equal mass. The animals were kept in accordance with the rules adopted by the European Convention for the Protection of Vertebrates used for experimental and other purposes (European Convention for the Protection of Vertebrates used for Experiments or for Other Scientific Purposes (EST No. 123), Strasbourg, 18 March 1986, M., 1990, 12 pp.). Animals were kept in standard vivarium conditions. The animals were killed by decapitation in accordance with the “Rules for carrying out work using experimental animals”, approved by order of the Ministry of Health of the USSR No. 742 of 13 Nov. 1984 (Bolshakov […] Didactic and ethical aspects of research on biomodels and on laboratory animals//Qualitative clinical practice. 2002. No. 1. P.58-61). Within 20 days, the animals received an aqueous solution of creatine in a dosage of 0.3 mg per gram of weight. […] Upon administration, the drug was dissolved in 0.3 ml of water and injected into mice through a probe into the stomach daily in the morning, on an empty stomach. The animals of the control group received a similar volume of water. Phenylcreatine was also administered for 20 days in an amount of 50 mg per kg of body weight. Endurance of mice under physical exertion was assessed according to a standard procedure (Emirova L R Potention by […] of the action of medicinal substances that increase the endurance of athletes: dis . . . medical doctor: 14.00.25. M., 2004. 125 pp.) for the duration of running in the treadmill test. The animals of each group were subjected to daily training loads in a high load power mode, which was modelled by running on a treadmill at a speed of 29-31 m/min. The duration of daily mice training was 5 minutes. Endurance of mice was tested on the 1st, 5th, 10th, 15th, 20th and 25th days of training against the background of administration of drugs (or distilled water in the control). Endurance testing was conducted under the same conditions as training. Endurance was tested 1 hour after drug administration (Petrenko E R Comparative pharmacological study of adaptogenic properties of ginseng preparations: dis . . . candidate of biological sciences: 14.00.25., St. Petersburg, 1998. 126 pp.) until fatigue, the criterion of which was the lack of reaction of mice to stimulation of the legs and tail by electric current (Stratienko E N Influence of phenylethyl substituted derivatives of 3-oxypridine on the physical working capacity of mice under conditions of hypobaric hypoxia: dis . . . . Medical Candidate of Sciences Bryansk, 1996. DSP. 201 pp.). Running time was recorded in seconds. The study was carried out at rest, an hour after the administration of creatine or phenylcreatine, and immediately after the end of the run in the treadmill. Statistical processing of data was carried out in the program Statistica, for all data groups, using the Student's criterion. The following results were obtained concerning the effect of the intake of creatine and phenylcreatine on the endurance of mice. Dosages of 10 mg of phenylcreatine per animal and 300 mg of creatine per animal were used.
# [1] = Body weight of mice on administration of creatine and phenylcreatine; format: in vivo; settings: 20 days daily into the stomach, creatine 0.3 mg per gram, phenylcreatine 50 mg per kg, control 6.4%
# Experimental: In order to find out whether phenylcreatine is a functional analogue of creatine, and also how much its effect is related to the strength of creatine, the functional state of the mice was assessed, namely, the body weight was measured, activity and endurance in the test on white mongrel mice were assessed—males weighing 18-22 g.
# Two experimental groups of mice and one control group (10 mice in each group) were selected. Initially, the animals were of equal mass. The animals were kept in accordance with the rules adopted by the European Convention for the Protection of Vertebrates used for experimental and other purposes (European Convention for the Protection of Vertebrates used for Experiments or for Other Scientific Purposes (EST No. 123), Strasbourg, 18 March 1986, M., 1990, 12 pp.). Animals were kept in standard vivarium conditions. The animals were killed by decapitation in accordance with the “Rules for carrying out work using experimental animals”, approved by order of the Ministry of Health of the USSR No. 742 of 13 Nov. 1984 (Bolshakov O P, Neznanov N G, Babakhnyan R V Didactic and ethical aspects of research on biomodels and on laboratory animals//Qualitative clinical practice. 2002. No. 1. P.58-61).
# Within 20 days, the animals received an aqueous solution of creatine in a dosage of 0.3 mg per gram of weight. […]
# [2] = 15th day of the study, control 1.1 times
# [3] = 20th day of the study, control 1.4 times
# [4] = 25th day of research, control 1.7 times
# [5] = 1 d, 10 mg phenylcreatine or 300 mg creatine per animal
SMILES,Increase of running time to total fatigue (white mongrel mice; [2]) [times],Increase of running time to total fatigue (white mongrel mice; [3]) [times],Increase of running time to total fatigue (white mongrel mice; [4]) [times],Running time of mice (M ± m) (white mongrel mice; [5]) [s],Running time of mice (M ± m) (white mongrel mice; 5 d) [s],Running time of mice (M ± m) (white mongrel mice; 10 d) [s],Running time of mice (M ± m) (white mongrel mice; 15 d) [s],Running time of mice (M ± m) (white mongrel mice; 20 d) [s],Running time of mice (M ± m) (white mongrel mice; 25 d) [s],Weight gain [1] [%],Speed of increase of the effect relative to the group receiving creatine (white mongrel mice; mice treadmill) [times]
"CN(CC(=O)O)C(=N)N [creatine, 2-(methylguanine)-ethane acid]",2.8,4.5,5.6,626.00 ± 32.25,772.60 ± 33.07,775.80 ± 37.01,1811.30 ± 85.82,2794.70 ± 103.22,3697.5 ± 1373,9,–
"N=C(N)N(CC(=O)O)Cc1ccccc1 [phenylcreatine, N-benzyl-N-carbamimidoylglycine]",6.4,6.9,6.7,588.23 ± 25,747.23 ± 17.06,1874.12 ± 114.43,3756.77 ± 97.02,4076.45 ± 276.57,3981.4 ± 202.8,15.4,2
